Measured values: patent publication US11716994B2, “Combinations of Yersinia entomophaga and pesticides or other substances” (priority 2017, dated 2023)
Values joined by “and” are separate entries in the source; they are usually repeats but may differ in a detail not shown here. Equal entries are not always repeated. Where two headings read alike, the source gives them in different places.

Assays:
Yersinia entomophaga = assay: CFU counts after exposure of Yersinia entomophaga to insecticides; format: cell-based; conditions: 1 hour contact
Excerpt: To test combinations of Yersinia entomophaga and pesticides for their ability to produce a pesticidal effect, or an effect on plant growth or yield, we first put various insecticides in contact with Yersinia to identify insecticides that had minimal toxicity to Yersinia entomophaga. The logic was that, if Yersinia entomophaga is to function well in combination with a chemical insecticide, the chemical insecticide would ideally have low or no effect on the ability of Yersinia entomophaga to survive, grow and/or to function.
To perform this study, we selected amounts of various insecticides based on the percent of the specific insecticide in the insecticide composition obtained from a manufacturer. We also considered the application rate of the particular insecticide, as recommended by the manufacturer. […] Generally, the 1× amount was considered possibly the lowest amount of insecticide that may be considered as an effective amount for use in the combinations disclosed herein. For each insecticide, we also used a higher amount of insecticide (generally a 5× or 10× amount).
The 1× and 5×/10× amounts of each insecticide were added to tubes along with 1 ml of ethyl acetate. The tubes were mixed until the insecticides dissolved. The tubes were left open in a fume hood overnight to allow the ethyl acetate to evaporate. The insecticide remained in the tubes, as a solid coat on the interior surface of the tubes.
A growing culture of Yersinia entomophaga, grown in LB medium, was diluted and 1 ml of the diluted culture was added to each tube containing the dried insecticide. The tubes were mixed and then left on the bench top for 1 hour. Then, 100 μl from each tube was plated onto LB plates in triplicate in CFU assays. Plates were incubated at 25° C. for 48 hours and colonies were counted.

cabbage looper [1] = test system: cabbage looper
fall armyworm [2] = test system: fall armyworm
Protocol: To produce cell free filtrates, cultures of Yersinia entomophaga grown in LB medium were centrifuged at 11,448 (g) for 10 minutes. The supernatant was decanted from the centrifuged pellet and filtered through a 0.22 μm filter. Assays were performed to determine concentrations of Yen-TC (toxin complex) using ELISA, and chitinase by measuring chitinase activity on specific substrates. […] This was done to estimate relative potency of the cell free filtrates. Insects were first pre-screened with a range of dilutions of cell free filtrates to select a concentration that provided moderate activity. […] Based on these initial screens, undiluted cell free filtrate was used for cabbage looper, fall armyworm, black cutworm, and Colorado potato beetle.
Cabbage leaf disks were dipped in either acetone (controls and Y. entomophaga alone treatments) or fipronil (Sigma 46451) at 12 mg/L in acetone. These were set to dry for 1 hr. […] After the cabbage disks had dried for 1 hr, a single 3rd instar fall armyworm was added to each individual cabbage disk. A total of 20 insects were evaluated for each treatment. Insects were observed daily and scored as live or dead.
Cabbage leaf disks were dipped in either acetone (controls and Y. entomophaga alone treatments) or esfenvalerate (Sigma 46277) at 56 mg/L in acetone. These were set to dry for 1 hr. […] After the cabbage disks had dried for 1 hr, a single 3rd instar fall armyworm was added to each individual cabbage disk. A total of 20 insects were evaluate for each treatment. Insects were observed daily and scored as live or dead.

cabbage looper [3] = test system: cabbage looper; remark: listed apart in the source
Protocol: (§2) To produce cell free filtrates, cultures of Yersinia entomophaga grown in LB medium were centrifuged at 11,448 (g) for 10 minutes. The supernatant was decanted from the centrifuged pellet and filtered through a 0.22 μm filter. Assays were performed to determine concentrations of Yen-TC (toxin complex) using ELISA, and chitinase by measuring chitinase activity on specific substrates. […] This was done to estimate relative potency of the cell free filtrates. Insects were first pre-screened with a range of dilutions of cell free filtrates to select a concentration that provided moderate activity. […] Based on these initial screens, undiluted cell free filtrate was used for cabbage looper, fall armyworm, black cutworm, and Colorado potato beetle. […] In each of the Examples below, this is expressed as 1%.
Cabbage leaf disks were dipped in either acetone (controls and Y. entomophaga alone treatments) or novaluron (Sigma 32419) at 1.0 mg/L in acetone. These were set to dry for 1 hr. […] After the cabbage disks had dried for 1 hr, a single 3rd instar cabbage looper was added to each individual cabbage disk. A total of 20 insects were evaluate for each treatment. Insects were observed daily and scored as live or dead.

black cutworm [4] = test system: black cutworm
Protocol: as §2
Cabbage leaf disks were dipped in either acetone (controls and Y. entomophaga alone treatments) or in indoxacarb (Sigma 33969) at 0.53 mg/L in acetone. These were set to dry for 1 hr. […] After the cabbage disks had dried for 1 hr, a single 2nd instar black cutworm was added to each individual cabbage disk. A total of 20 insects were evaluate for each treatment. Insects were observed daily and scored as live or dead.
Cabbage leaf disks were dipped in either acetone (controls and Y. entomophaga alone treatments) or in flubendiamide (Sigma 32801) at 0.59 mg/L in acetone. These were set to dry for 1 hr. […] After the cabbage disks had dried for 1 hr, a single 2nd instar black cutworm was added to each individual cabbage disk. A total of 20 insects were evaluate for each treatment. Insects were observed daily and scored as live or dead.

fall armyworm [5] = assay: Leaf disk mortality assay, Y. entomophaga cells with chemical insecticides; conditions: for % Mortality (3DAT) / LT50 (95% confidence intervals) in days: 4th instar; for % Mort. Chem.: fall armyworm, Esfenvalerate 56 mg/L
black cutworm [6] = assay: as above; conditions: for % Mort. Chem. / LT50 Chem.: black cutworm
western flower thrips = assay: as above; format: in vivo; conditions: for mortality at 100 µg/mL: Frankliniella occidentalis, foliar; for mortality at 100 µg/mL / LT50 (95% confidence intervals) in days: adults, imidacloprid 100 mg/L; for % Mort. Chem.: Imidacloprid 100 mg/L
Protocol: These were set to dry for 1 hr. After the disks had dried, two were placed in individual cups and 12 adult western flower thrips were added. This experiment was repeated and a total of 24 insects were evaluated for each treatment.

Colorado potato beetle [7] = conditions: for LT50 (95% confidence intervals): 3rd instar Colorado potato beetle, O43NEW undiluted filtrate, alone or combined; for LT50 Chem. / % Mort. Chem.: Colorado potato beetle; for % Mort. Chem.: 6 DAT
Protocol: as §2
Tomato leaf disks were dipped in either acetone (controls and Y. entomophaga alone treatments) or thiacloprid (Sigma 37905) at 1 mg/L in acetone. These were set to dry for 1 hr. […] After the tomato disks had dried for 1 hr, a single 3rd instar Colorado potato beetle was added to each individual cabbage disk. A total of 20 insects were evaluate for each treatment. Insects were observed daily and scored as live or dead.

Colorado potato beetle [8] = assay: Tomato leaf disk mortality assay, Y. entomophaga cells with chemical insecticides; conditions: for % Mort. Chem. / LT50 Chem.: Colorado potato beetle; for mortality at 0.56 µg/mL / mortality at 1 µg/mL: Leptinotarsa decemlineata, in Solanum lycopersicum, foliar
diamondback moth = assay: whole plant or invertebrate; conditions: thiacloprid 100 mg/L; for mortality at 100 µg/mL: Plutella xylostella, foliar, Abbott's corrected
Excerpt: (§1) These were set to dry for 1 hr.
as §1
These were set to dry for 1 hr. Cabbage disks were then dipped in either 1% Luria broth (LB) media solution (controls and thiacloprid alone treatments) or in 1% cell free filtrate from a culture Y. entomophaga isolate O24G3R (Y. entomophaga alone or in combination with thiacloprid treatments).

[9] = 3rd instar, esfenvalerate 5.6 mg/L, isolate O24G3R 1×10^4 cfu/mL
[10] = 3rd instar, esfenvalerate 56 mg/L, isolate O43NEW 1×10^6 cfu/mL
[11] = esfenvalerate 56 mg/L, isolate O23ZMJ 1×10^5 cfu/mL
[12] = esfenvalerate 56 mg/L, isolate O24G3R 1×10^5 cfu/mL
[13] = esfenvalerate 56 mg/L, isolate O348UX 1×10^5 cfu/mL
[14] = 3rd instar, esfenvalerate 5.6 mg/L, isolate O23ZMJ 1×10^5 cfu/mL
[15] = 3rd instar, esfenvalerate 5.6 mg/L, isolate O24G3R 1×10^5 cfu/mL
[16] = 3rd instar, esfenvalerate 5.6 mg/L, isolate O43NEW 1×10^5 cfu/mL
[17] = 3rd instar, esfenvalerate 5.6 mg/L, isolate O348UX 1×10^5 cfu/mL

CC(C)[C@H](C(=O)O[C@H](C#N)c1cccc(Oc2ccccc2)c1)c1ccc(Cl)cc1 [Esfenvalerate]
Average CFU (Yersinia entomophaga; 0.8 mg insecticide): 258 CFU
Average CFU (Yersinia entomophaga; 5.3 mg insecticide): 0 CFU
% Mort. Chem. (cabbage looper [1]; cabbage looper, Esfenvalerate 0.56 mg/L, 7 DAT): 37%
LT50 Chem. (cabbage looper [1]; cabbage looper, Esfenvalerate alone 0.56 mg/L): 5.63 days
% Mortality (2DAT) (cabbage looper [1]; in vivo): 5%
LT50 (95% confidence intervals) in days (cabbage looper [1]; in vivo): 5.63 (5.19-6.11) days
LT50 Chem. (fall armyworm [2]; Fall armyworm, esfenvalerate 56 mg/L): 9.84 days
% Mort. Chem. (fall armyworm [2]; fall armyworm, Esfenvalerate 56 mg/L, 5 DAT): 40%
% Mortality (5DAT) (fall armyworm [2]; in vivo): 40%
% Mortality (7DAT) (fall armyworm [2]; in vivo): 45%
LT50 (95% confidence intervals) (fall armyworm [2]; in vivo): 9.84 days
LT50 Chem. (cabbage looper [3]; Cabbage Looper, esfenvalerate 0.56 mg/L): 5.23 days
% Mort. Chem. (cabbage looper [3]; Cabbage Looper, esfenvalerate 0.56 mg/L, 5 DAT): 40%
% Mortality (5DAT) (cabbage looper [3]; in vivo): 40%
% Mortality (6DAT) (cabbage looper [3]; in vivo): 70%
% Mortality (8DAT) (cabbage looper [3]; in vivo): 83%
LT50 (95% confidence intervals) in days (cabbage looper [3]; in vivo): 5.23 (4.69-5.79) days
LT50 Chem. (black cutworm [4]; Black cutworm, esfenvalerate 5.6 mg/L): 3.68 days
% Mort. Chem. (black cutworm [4]; Black cutworm, esfenvalerate 5.6 mg/L, 6 DAT): 84%
% Mortality (6DAT) (black cutworm [4]; in vivo): 84%
LT50 (95% confidence intervals) (black cutworm [4]; in vivo): 3.68 days
% Mortality (6DAT) (fall armyworm [5]; [9]): 0%
LT50 (95% confidence intervals) (fall armyworm [5]; [9]): 20.00 days
% Mortality (5DAT) (fall armyworm [5]; [10]): 5%
% Mortality (7DAT) (fall armyworm [5]; [10]): 5%
% Mortality (9DAT) (fall armyworm [5]; [10]): 11%
% Mortality (11DAT) (fall armyworm [5]; [10]): 6%
LT50 (95% confidence intervals) (fall armyworm [5]; [10]): 13.6 days
% Mortality (3DAT) (fall armyworm [5]; [11]): 25%
LT50 (95% confidence intervals) in days (fall armyworm [5]; [11]): 3.66 (3.28-4.09) days
% Mortality (3DAT) (fall armyworm [5]; [12]): 25%
LT50 (95% confidence intervals) in days (fall armyworm [5]; [12]): 3.66 (3.28-4.09) days
% Mortality (3DAT) (fall armyworm [5]; [13]): 25%
LT50 (95% confidence intervals) in days (fall armyworm [5]; [13]): 3.66 (3.28-4.09) days
% Mort. Chem. (fall armyworm [5]; 3 DAT (row with O23ZMJ)): 25%
% Mort. Chem. (fall armyworm [5]; 3 DAT (row with O24G3R 1 × 10^5)): 25%
% Mort. Chem. (fall armyworm [5]; 3 DAT (row with O348UX)): 25%
% Mort. Chem. (fall armyworm [5]; 5 DAT): 5%
% Mort. Chem. (fall armyworm [5]; 6 DAT): 0%
% Mortality (3DAT) (black cutworm [6]; [14]): 42%
% Mortality (4DAT) (black cutworm [6]; [14]): 61%
LT50 (95% confidence intervals) in days (black cutworm [6]; [14]): 3.40 (3.03-3.81) days
% Mortality (5DAT) (black cutworm [6]; [15]): 50%
% Mortality (6DAT) (black cutworm [6]; [15]): 56%
% Mortality (7DAT) (black cutworm [6]; [15]): 69%
LT50 (95% confidence intervals) in days (black cutworm [6]; [15]): 5.29 (4.75-5.87) days
% Mortality (3DAT) (black cutworm [6]; [16]): 40%
% Mortality (4DAT) (black cutworm [6]; [16]): 45%
LT50 (95% confidence intervals) in days (black cutworm [6]; [16]): 3.97 (3.60-4.38) days
% Mortality (5DAT) (black cutworm [6]; [17]): 50%
% Mortality (6DAT) (black cutworm [6]; [17]): 56%
% Mortality (7DAT) (black cutworm [6]; [17]): 69%
LT50 (95% confidence intervals) (black cutworm [6]; [17]): 5.29 days
% Mort. Chem. (black cutworm [6]; Esfenvalerate 1.87 mg/L, 5 DAT (row with O24G3R)): 50%
% Mort. Chem. (black cutworm [6]; Esfenvalerate 1.87 mg/L, 5 DAT (row with O348UX)): 50%
% Mort. Chem. (black cutworm [6]; Esfenvalerate 5.6 mg/L, 4 DAT (row with O23ZMJ)): 61%
% Mort. Chem. (black cutworm [6]; Esfenvalerate 5.6 mg/L, 4 DAT (row with O43NEW)): 45%
LT50 Chem. (black cutworm [6]; Esfenvalerate alone 1.87 mg/L): 5.29 days
LT50 Chem. (black cutworm [6]; Esfenvalerate alone 5.6 mg/L): 3.97 days and 3.40 days

O=[N+]([O-])NC1=NCCN1Cc1ccc(Cl)nc1 [Imidacloprid]
mortality at 100 µg/mL (western flower thrips; 24 h, isolate O333A4 1×10^5 cfu/mL, read-out: % Mortality (1DAT)): 16%
mortality at 100 µg/mL (western flower thrips; 48 h, isolate O43NEW 1×10^5 cfu/mL, read-out: % Mortality (2DAT)): 29%
LT50 (95% confidence intervals) in days (western flower thrips; isolate O43NEW 1×10^5 cfu/mL): 2.72 (2.40-3.08) days
LT50 (95% confidence intervals) in days (western flower thrips; isolate O333A4 1×10^5 cfu/mL): 2.72 (2.40-3.08) days
% Mort. Chem. (western flower thrips; western flower thrips, 2 DAT (row with O43NEW)): 29%
% Mort. Chem. (western flower thrips; western flower thrips, 2 DAT (row with O333A4)): 16%
LT50 Chem. (western flower thrips; western flower thrips, Imidacloprid alone 100 mg/L): 2.72 days
LT50 (95% confidence intervals) (Colorado potato beetle [7]; imidacloprid 0.56 mg/L): 18.03 days
LT50 Chem. (Colorado potato beetle [7]; imidacloprid 0.56 mg/L): 18.03 days
% Mort. Chem. (Colorado potato beetle [7]; imidacloprid 0.56 mg/L): 5%
LT50 (95% confidence intervals) in days (Colorado potato beetle [8]; 4th instar larva, imidacloprid 0.56 mg/L, isolate O43NEW 1×10^7 cfu/mL): 20.38 (15.79-27.60) days
% Mort. Chem. (Colorado potato beetle [8]; Imidacloprid 0.56 mg/L, 10 DAT): 17%
LT50 Chem. (Colorado potato beetle [8]; Imidacloprid alone 0.56 mg/L): 20.38 days
mortality at 0.56 µg/mL (Colorado potato beetle [8]; 72 h, read-out: % Mortality (3DAT)): 0%
mortality at 0.56 µg/mL (Colorado potato beetle [8]; 240 h, read-out: % Mortality (10DAT)): 17%
mortality at 0.56 µg/mL (Colorado potato beetle [8]; 312 h, read-out: % Mortality (13DAT)): 7%

N#C/N=C1\SCCN1Cc1ccc(Cl)nc1 [Thiacloprid]
LT50 (95% confidence intervals) (diamondback moth; 2nd instar diamondback moth, O24G3R filtrate 1%, alone or combined): 12.58 days
LT50 Chem. (diamondback moth; Diamondback moth): 12.58 days
% Mort. Chem. (diamondback moth; Diamondback moth, 7 DAT): 17%
mortality at 100 µg/mL (diamondback moth; 96 h, read-out: % Mortality (4DAT), 2nd instar diamondback moth, O24G3R filtrate 1%, alone or combined, 4 DAT): 5%
mortality at 100 µg/mL (diamondback moth; 120 h, read-out: % Mortality (5DAT), 2nd instar diamondback moth, O24G3R filtrate 1%, alone or combined, 5 DAT): 10%
mortality at 100 µg/mL (diamondback moth; 144 h, read-out: % Mortality (6DAT), 2nd instar diamondback moth, O24G3R filtrate 1%, alone or combined, 6 DAT): 10%
mortality at 100 µg/mL (diamondback moth; 168 h, read-out: % Mortality (7DAT), 2nd instar diamondback moth, O24G3R filtrate 1%, alone or combined, 7 DAT): 17%
mortality at 100 µg/mL (diamondback moth; 288 h, read-out: % Mortality (12DAT), 2nd instar diamondback moth, O24G3R filtrate 1%, alone or combined, 12 DAT): 27%
mortality at 100 µg/mL (diamondback moth; 312 h, read-out: % Mortality (13DAT), 2nd instar diamondback moth, O24G3R filtrate 1%, alone or combined, 13 DAT): 33%
LT50 (95% confidence intervals) (Colorado potato beetle [7]; thiacloprid 1 mg/L): 12.71 days
LT50 Chem. (Colorado potato beetle [7]; thiacloprid 1 mg/L): 12.71 days
% Mort. Chem. (Colorado potato beetle [7]; thiacloprid 1 mg/L): 13%
LT50 (95% confidence intervals) in days (Colorado potato beetle [8]; 2nd instar larva, thiacloprid 1 mg/L, isolate O43NEW 1×10^6 cfu/mL): 6.99 (6.44-7.58) days
% Mort. Chem. (Colorado potato beetle [8]; Thiacloprid 1 mg/L, 5 DAT): 26%
LT50 Chem. (Colorado potato beetle [8]; Thiacloprid alone 1 mg/L): 6.99 days
mortality at 1 µg/mL (Colorado potato beetle [8]; 96 h, read-out: % Mortality (4DAT)): 26%
mortality at 1 µg/mL (Colorado potato beetle [8]; 120 h, read-out: % Mortality (5DAT)): 26%
